Results as given in publication PMC5827777, “Synthesis and biological evaluation of RGD and isoDGR peptidomimetic-α-amanitin conjugates for tumor-targeting” (Beilstein Journal of Organic Chemistry, 2018).

Biological target: T1, Recombinant human integrin αVβ3 (Homo sapiens, UniProt P05106+P06756)
T1 construct: purchased R&D Systems, Minneapolis, MN, USA
Assay: Inhibition of biotinylated vitronectin binding to purified αVβ3 receptor (solid phase receptor binding assay)
Details: conjugates, Table 2; mean ± SD of triplicate determinations
Procedure: Conjugates 7–11 were evaluated for their ability to inhibit biotinylated vitronectin binding to the purified αVβ3 receptor. Screening assays were performed by incubating the immobilized integrin receptor with solutions of the cyclo[DKP-RGD]-α-amanitin and cyclo[DKP-isoDGR]-α-amanitin conjugates 7–11 at different concentrations (10^−12 to 10^−5 M) in the presence of biotinylated vitronectin (1 µg mL^−1) and measuring bound vitronectin. […]
to assist the dissolution). The solution obtained was filtered (polypropylene, 0.45 μm, 13 mm ø, PK/100) and injected in the HPLC, affording purified products. Purity analyses were carried on a Dionex Ultimate 3000 instrument equipped with a Dionex RS Variable Wavelenght detector (column: Atlantis® Prep T3 OBDTM 5 μm 19 × 100 mm). The analyte (1 mg) was dissolved in 1 mL of H2O and was injected using the same gradient used in the purification step. The analysis of the integrals and the relative percentage of purity were performed with the software Chromeleon 6.80 SR11 Build 3161. Also, preparative HPLC LaPrep∑ equipped with autosampler AS3950 and a Phenomenex Luna C-18(2) column, 10 µm, 250 × 21.2 mm, with precolumn at 30 mL/min flow rate and analytical HPLC performed on Hitachi Chromaster (column oven Chromaster 5310, pump Chromaster 5110, autosampler Chromaster 5210, DAD Chromaster 5430) equipped with a Phenomenex Luna C-18(2) column, 10 µm, 250 × 4.6 mm, with precolumn at 1.4 mL/min flow rate were used. Freeze-drying: The product was dissolved in water and frozen with dry ice. The freeze-drying was carried out at least for 48 h at −50 °C using the instrument 5Pascal Lio5P DGT.
Solid phase receptor binding assays
Recombinant human integrin αVβ3 (R&D Systems, Minneapolis, MN, USA) was diluted to 0.5 µg/mL in coating buffer containing 20 mM Tris-HCl (pH 7.4), 150 mM NaCl, 1 mM MnCl2, 2 mM CaCl2, and 1 mM MgCl2. […] Absorbance at 415 nm was read in a SynergyTM HT Multi-Detection Microplate Reader (BioTek Instruments, Inc.). […]

T1 sequence (P06756 31-992 limits assumed): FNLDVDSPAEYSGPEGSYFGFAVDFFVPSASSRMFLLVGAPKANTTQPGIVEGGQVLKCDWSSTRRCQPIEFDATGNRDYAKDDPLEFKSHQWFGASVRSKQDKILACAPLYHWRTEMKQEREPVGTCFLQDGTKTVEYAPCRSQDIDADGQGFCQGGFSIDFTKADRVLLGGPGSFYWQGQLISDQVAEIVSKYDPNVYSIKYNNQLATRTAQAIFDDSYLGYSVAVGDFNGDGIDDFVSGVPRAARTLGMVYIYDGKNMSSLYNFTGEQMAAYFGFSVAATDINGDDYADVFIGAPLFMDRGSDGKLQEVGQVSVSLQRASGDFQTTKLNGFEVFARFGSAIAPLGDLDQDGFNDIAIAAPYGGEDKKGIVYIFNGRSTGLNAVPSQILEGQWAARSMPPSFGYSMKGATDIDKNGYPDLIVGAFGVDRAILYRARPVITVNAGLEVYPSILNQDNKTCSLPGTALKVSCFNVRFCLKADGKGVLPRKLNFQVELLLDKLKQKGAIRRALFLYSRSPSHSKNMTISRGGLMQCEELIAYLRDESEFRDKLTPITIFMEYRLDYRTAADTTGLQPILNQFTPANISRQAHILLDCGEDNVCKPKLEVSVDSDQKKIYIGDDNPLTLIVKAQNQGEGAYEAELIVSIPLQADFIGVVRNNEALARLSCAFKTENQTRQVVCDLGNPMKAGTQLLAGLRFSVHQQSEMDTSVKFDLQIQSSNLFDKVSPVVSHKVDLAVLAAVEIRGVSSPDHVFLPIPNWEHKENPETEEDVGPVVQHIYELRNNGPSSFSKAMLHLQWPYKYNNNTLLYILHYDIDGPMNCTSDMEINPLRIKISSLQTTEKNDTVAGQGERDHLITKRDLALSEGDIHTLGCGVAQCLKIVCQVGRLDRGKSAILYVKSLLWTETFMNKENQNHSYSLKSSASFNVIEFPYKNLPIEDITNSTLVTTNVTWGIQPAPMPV
T1 sequence (P05106 27-718 limits assumed): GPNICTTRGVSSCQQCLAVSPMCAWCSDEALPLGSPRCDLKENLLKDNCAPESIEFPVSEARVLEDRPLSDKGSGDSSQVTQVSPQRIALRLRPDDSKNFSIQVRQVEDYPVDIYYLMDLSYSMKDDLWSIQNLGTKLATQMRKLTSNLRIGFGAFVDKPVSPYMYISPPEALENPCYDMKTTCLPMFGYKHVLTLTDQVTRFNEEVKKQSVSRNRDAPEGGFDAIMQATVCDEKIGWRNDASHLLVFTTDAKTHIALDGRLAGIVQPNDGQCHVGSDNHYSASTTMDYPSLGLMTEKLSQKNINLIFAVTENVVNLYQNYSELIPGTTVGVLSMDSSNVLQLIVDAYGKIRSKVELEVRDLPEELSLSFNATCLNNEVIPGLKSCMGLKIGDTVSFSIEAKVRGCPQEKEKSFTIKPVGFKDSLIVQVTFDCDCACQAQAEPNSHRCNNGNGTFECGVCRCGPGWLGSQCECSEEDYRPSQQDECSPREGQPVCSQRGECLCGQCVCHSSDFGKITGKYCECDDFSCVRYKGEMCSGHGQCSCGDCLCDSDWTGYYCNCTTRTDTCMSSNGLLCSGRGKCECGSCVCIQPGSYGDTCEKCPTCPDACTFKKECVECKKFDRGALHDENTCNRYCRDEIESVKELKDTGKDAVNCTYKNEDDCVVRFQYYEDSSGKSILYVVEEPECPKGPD

Q: For `CC[C@H](C)[C@@H]1NC(=O)CNC(=O)[C@@H]2Cc3c([nH]c4cc(OCc5ccc(NC(=O)[C@H](C)NC(=O)[C@@H](NC(=O)CCCC(=O)NCc6ccc(CN7C(=O)[C@H]8CC(=O)N[C@H](C(=O)O)CC(=O)NCC(=O)N[C@@H](CCCNC(=N)N)C(=O)NC[C@H]7C(=O)N8)cc6)C(C)C)cc5)ccc34)[S@+]([O-])C[C@H](NC(=O)CNC1=O)C(=O)N[C@@H](CC(N)=O)C(=O)N1C[C@H](O)C[C@H]1C(=O)N[C@@H]([C@@H](C)[C@@H](O)CO)C(=O)N2` [Compound 10, cyclo[DKP-isoDGR]-Val-Ala-α-amanitin], which IC50 is on record?
A: 6.4 ± 1.9 nM
